Drawing on PubChem BioAssay (NCI), this text covers TGI for 5 compounds.

Some test systems named below: KM20L2 colon; LXFL 529 NSCLC; NCI-H460 lung; CAKI-1 renal; NCI-H23 lung; LOX IMVI melanoma; SW-620 colon; UO-31 renal; M14 melanoma; HCT-116 colon; OVCAR-5 ovarian; HOP-18 NSCLC; RPMI-8226 leukemia; HS 578T breast; DU-145 prostate; MDA-MB-435; MDA-MB-231 breast; NCI/ADR-RES ovarian; MDA-N; A498 renal.
Common to all, as to assay: NCI-60 cell line screen, 48 h

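How tested: cells in 96-well plates exposed to compound for 48 hours at five concentrations. TGI: total growth inhibition.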 Bounds are passed on as bounds.

Turning to `CN1Cc2ccccc2C2(COc3ccccc3C2=O)C1` (stereo not drawn), the TGI with KM20L2 colon, in the experiment with LXFL 529 NSCLC, in the experiment on NCI-H460 lung, with CAKI-1 renal, in the experiment with NCI-H23 lung and in the experiment with LOX IMVI melanoma was greater than 100 µM each time. Further, the TGI with SW-620 colon, in the experiment with UO-31 renal, in the experiment with M14 melanoma, in the experiment with HCT-116 colon, with OVCAR-5 ovarian and in the experiment with HOP-18 NSCLC was greater than 100 µM each time. This compound returned a TGI with RPMI-8226 leukemia greater than 100 µM.
Turning to `CC(=O)c1c(-c2ccco2)c(C#N)c(=S)n(C2OC(CO)C(O)C(O)C2O)c1C` (stereo not drawn), the TGI with HS 578T breast, in the experiment on DU-145 prostate, in the experiment with MDA-MB-435, with NCI-H460 lung, in the experiment with CAKI-1 renal and in the experiment with NCI-H23 lung was greater than 100 µM throughout. The TGI in the experiment with LOX IMVI melanoma, in the experiment on SW-620 colon, with MDA-MB-231 breast, in the experiment on UO-31 renal, in the experiment with M14 melanoma and in the experiment on HCT-116 colon was greater than 100 µM in each case. In addition, the TGI with NCI/ADR-RES ovarian, in the experiment with OVCAR-5 ovarian, in the experiment with RPMI-8226 leukemia and with MDA-N was greater than 100 µM throughout.
Take `CN1COCN=C1NC#N`: the TGI with KM20L2 colon, in the experiment with LXFL 529 NSCLC, in the experiment on NCI-H460 lung, in the experiment on CAKI-1 renal, with LOX IMVI melanoma and in the experiment with SW-620 colon was greater than 100 µM in each case. The TGI in the experiment on UO-31 renal, with M14 melanoma, with A498 renal, in the experiment on HCT-116 colon, in the experiment on OVCAR-5 ovarian and in the experiment with HOP-18 NSCLC was greater than 100 µM throughout. This compound yielded a TGI with RPMI-8226 leukemia greater than 100 µM.
As for `Cc1cc(C)c(S(=O)(=O)N(CCCCCN)OCCCN)c(C)c1`, the TGI in the experiment on HS 578T breast came to 40 µM; with DU-145 prostate, 31.2 µM; in the experiment with MDA-MB-435, 34.9 µM; with NCI-H460 lung, 31.2 µM; in the experiment with CAKI-1 renal it was 31.2 µM; with NCI-H23 lung it was 33.4 µM. The TGI with LOX IMVI melanoma was determined as 36.8 µM; with SW-620 colon it was 36.3 µM; in the experiment on MDA-MB-231 breast it was 49 µM; in the experiment with UO-31 renal, 27.1 µM; in the experiment on M14 melanoma, 37 µM; in the experiment with HCT-116 colon, 32.7 µM. Moreover, the TGI in the experiment on NCI/ADR-RES ovarian was 34.3 µM; in the experiment with OVCAR-5 ovarian, 33.7 µM; with RPMI-8226 leukemia, 30.6 µM; with MDA-N it was 31.4 µM.
For the compound `COC1CCC(CO)OO1` (stereo not drawn), the TGI in the experiment with KM20L2 colon, in the experiment with LXFL 529 NSCLC, with NCI-H460 lung, in the experiment on NCI-H23 lung, in the experiment on UO-31 renal and in the experiment with M14 melanoma was greater than 100 µM throughout. Further, the TGI in the experiment on A498 renal is 72.2 µM; with HCT-116 colon, greater than 100 µM; in the experiment on OVCAR-5 ovarian, greater than 100 µM; with RPMI-8226 leukemia it was 93.1 µM.
